Assay results published in ChEMBL document CHEMBL3797052 (Eur J Med Chem, 2016).

Experiments:
[1] = Antiproliferative activity against human Caki1 cells assessed as growth inhibition after 48 hrs by sulforhodamine B assay; type: functional; conditions: CAKI-1, 48 h; for CC50: read-out: LC50 (the source's name)
[2] = Antiproliferative activity against human HOP92 cells assessed as cell growth at 10^-6 M after 48 hrs by sulforhodamine B assay; type: functional; conditions: HOP-92, 48 h, read-out: Activity
SN12C [3] = assay: Antiproliferative activity against human SN12C cells assessed as growth inhibition after 48 hrs by sulforhodamine B assay; type: functional; conditions: for CC50: read-out: LC50 (the source's name)
A498 = assay: Antiproliferative activity against human A498 cells assessed as cell growth at 10^-6 M after 48 hrs by sulforhodamine B assay; type: functional; conditions: A498, 48 h, read-out: Activity
[4] = Antiproliferative activity against human RPMI8226 cells assessed as cell growth at 10^-4 M after 48 hrs by sulforhodamine B assay; type: functional; conditions: RPMI-8226, 48 h, read-out: Activity
[5] = Antiproliferative activity against human HL-60(TB) cells assessed as cell growth at 10^-4 M after 48 hrs by sulforhodamine B assay; type: functional; conditions: HL-60, 48 h, read-out: Activity
[6] = Antiproliferative activity against human BT549 cells assessed as cell growth at 10^-8 M after 48 hrs by sulforhodamine B assay; type: functional; conditions: BT-549, 48 h, read-out: Activity
MDA-MB-468 = assay: Antiproliferative activity against human MDA-MB-468 cells assessed as cell growth at 10^-7 M after 48 hrs by sulforhodamine B assay; type: functional; conditions: MDA-MB-468, 48 h, read-out: Activity
ACHN = assay: Antiproliferative activity against human ACHN cells assessed as cell growth at 10^-8 M after 48 hrs by sulforhodamine B assay; type: functional; conditions: read-out: Activity
[7] = Antiproliferative activity against human HCT15 cells assessed as cell growth at 10^-8 M after 48 hrs by sulforhodamine B assay; type: functional; conditions: HCT-15, 48 h, read-out: Activity
[8] = Antiproliferative activity against human SF268 cells assessed as growth inhibition after 48 hrs by sulforhodamine B assay; type: functional; conditions: SF-268, 48 h
[9] = Antiproliferative activity against human HCT116 cells assessed as cell growth at 10^-4 M after 48 hrs by sulforhodamine B assay; type: functional; conditions: HCT-116, 48 h, read-out: Activity
[10] = Antiproliferative activity against human OVCAR5 cells assessed as growth inhibition after 48 hrs by sulforhodamine B assay; type: functional; conditions: OVCAR-5, 48 h
786-0 [11] = assay: Antiproliferative activity against human 786-0 cells assessed as cell growth at 10^-7 M after 48 hrs by sulforhodamine B assay; type: functional; conditions: 786-0, 48 h, read-out: Activity
CYP2C19 = CYP2C19 (Homo sapiens, UniProt P33261); assay: Inhibition of recombinant human CYP2C19 assessed as remaining enzyme activity at 10 uM after 5 mins in presence of NADP by fluorescence plate reader analysis; type: ADME; conditions: read-out: Activity
Sequence of CYP2C19 (P33261 whole entry): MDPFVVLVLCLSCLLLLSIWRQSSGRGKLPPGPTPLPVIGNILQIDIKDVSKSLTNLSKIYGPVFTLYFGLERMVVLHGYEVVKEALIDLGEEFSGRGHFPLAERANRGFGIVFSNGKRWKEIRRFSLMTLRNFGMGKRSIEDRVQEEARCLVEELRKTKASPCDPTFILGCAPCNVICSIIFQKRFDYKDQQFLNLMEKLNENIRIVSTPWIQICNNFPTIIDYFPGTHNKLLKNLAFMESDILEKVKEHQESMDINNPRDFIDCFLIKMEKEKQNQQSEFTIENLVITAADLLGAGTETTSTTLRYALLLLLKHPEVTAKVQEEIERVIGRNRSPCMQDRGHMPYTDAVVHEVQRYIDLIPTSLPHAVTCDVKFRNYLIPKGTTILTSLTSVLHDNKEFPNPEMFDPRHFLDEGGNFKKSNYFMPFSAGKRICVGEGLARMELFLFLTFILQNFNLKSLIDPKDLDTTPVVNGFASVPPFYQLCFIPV

K562 = assay: Antiproliferative activity against human K562 cells assessed as growth inhibition after 48 hrs by sulforhodamine B assay; type: functional; conditions: K562, 48 h; for CC50: read-out: LC50 (the source's name)
[12] = Antiproliferative activity against human NCI-ADR-RES cells assessed as cell growth at 10^-8 M after 48 hrs by sulforhodamine B assay; type: functional; conditions: read-out: Activity
[13] = Antiproliferative activity against human SKOV3 cells assessed as cell growth at 10^-6 M after 48 hrs by sulforhodamine B assay; type: functional; conditions: SK-OV-3, 48 h, read-out: Activity
786-0 [14] = assay: Antiproliferative activity against human 786-0 cells assessed as cell growth at […] after 48 hrs by sulforhodamine B assay; type: functional; conditions: 786-0, 48 h, read-out: Activity
[15] = Antiproliferative activity against human HCT15 cells assessed as cell growth at 10^-6 M after 48 hrs by sulforhodamine B assay; type: functional; conditions: HCT-15, 48 h, read-out: Activity
M14 [16] = assay: Antiproliferative activity against human M14 cells assessed as cell growth at 10^-7 M after 48 hrs by sulforhodamine B assay; type: functional; conditions: M14, 48 h, read-out: Activity
MCF7 [17] = assay: Antiproliferative activity against human MCF7 cells assessed as cell growth at 10^-8 M after 48 hrs by sulforhodamine B assay; type: functional; conditions: MCF7, 48 h, read-out: Activity
[18] = Antiproliferative activity against human BT549 cells assessed as cell growth at 10^-7 M after 48 hrs by sulforhodamine B assay; type: functional; conditions: BT-549, 48 h, read-out: Activity
SK-MEL-28 = assay: Antiproliferative activity against human SK-MEL-28 cells assessed as cell growth at 10^-7 M after 48 hrs by sulforhodamine B assay; type: functional; conditions: SK-MEL-28, 48 h, read-out: Activity
[19] = Antiproliferative activity against human SF295 cells assessed as cell growth at 10^-4 M after 48 hrs by sulforhodamine B assay; type: functional; conditions: SF-295, 48 h, read-out: Activity
MCF7 [20] = assay: Antiproliferative activity against human MCF7 cells assessed as cell growth at 10^-7 M after 48 hrs by sulforhodamine B assay; type: functional; conditions: MCF7, 48 h, read-out: Activity
NCI-H226 = assay: Antiproliferative activity against human NCI-H226 cells assessed as cell growth at 10^-6 M after 48 hrs by sulforhodamine B assay; type: functional; conditions: NCI-H226, 48 h, read-out: Activity
[21] = Antiproliferative activity against human UACC62 cells assessed as cell growth at 10^-6 M after 48 hrs by sulforhodamine B assay; type: functional; conditions: UACC-62, 48 h, read-out: Activity
[22] = Antiproliferative activity against human UACC62 cells assessed as growth inhibition after 48 hrs by sulforhodamine B assay; type: functional; conditions: UACC-62, 48 h; for CC50: read-out: LC50 (the source's name)
SN12C [23] = assay: Antiproliferative activity against human SN12C cells assessed as cell growth at 10^-4 M after 48 hrs by sulforhodamine B assay; type: functional; conditions: read-out: Activity
[24] = Antiproliferative activity against human OVCAR4 cells assessed as cell growth at 10^-6 M after 48 hrs by sulforhodamine B assay; type: functional; conditions: OVCAR-4, 48 h, read-out: Activity
[25] = Antiproliferative activity against human LOXIMVI cells assessed as cell growth at 10^-7 M after 48 hrs by sulforhodamine B assay; type: functional; conditions: LOX IMVI, read-out: Activity
[26] = Antiproliferative activity against human Caki1 cells assessed as cell growth at 10^-7 M after 48 hrs by sulforhodamine B assay; type: functional; conditions: CAKI-1, 48 h, read-out: Activity
[27] = Antiproliferative activity against human IGROV1 cells assessed as growth inhibition after 48 hrs by sulforhodamine B assay; type: functional; conditions: IGROV-1, 48 h; for CC50: read-out: LC50 (the source's name)
[28] = Antiproliferative activity against human HCT116 cells assessed as growth inhibition after 48 hrs by sulforhodamine B assay; type: functional; conditions: HCT-116, 48 h
M14 [29] = assay: Antiproliferative activity against human M14 cells assessed as cell growth at 10^-8 M after 48 hrs by sulforhodamine B assay; type: functional; conditions: M14, 48 h, read-out: Activity

## CNC(=O)c1cc(Oc2ccc3nc(NC(=O)Nc4ccc(Cl)c(C(F)(F)F)c4)sc3c2)ccn1
[1]
  GI50: 2.54 µM
  CC50: > 100 µM
[2]
  growth at 1 µM: 57%
SN12C [3]
  GI50: 2.44 µM
  TGI: > 100 µM
  CC50: > 100 µM
A498
  growth at 1 µM: 80%
[4]
  growth at 100 µM: 46%
[5]
  growth at 100 µM: 59%
[6]
  growth at 0.01 µM: 95%
MDA-MB-468
  growth at 0.1 µM: 85%
ACHN
  growth at 0.01 µM: 97%
[7]
  growth at 0.01 µM: 97%
[8]
  GI50: 2.34 µM
  LC50 (concentration killing 50% of cells): > 100 µM
  TGI: 16.4 µM
[9]
  growth at 100 µM: -19%
[10]
  GI50: 2.46 µM
  TGI: 7.55 µM
[10]; read-out: LC50 (the source's name)
  CC50: > 100 µM
786-0 [11]
  growth at 0.1 µM: 101%
CYP2C19
  activity at 5 min, 10 µM: 79.9%
K562
  TGI: > 100 µM
  CC50: > 100 µM
[12]
  growth at 0.01 µM: 110%
[13]
  growth at 1 µM: 90%
786-0 [14]
  growth at 100 µM: -77%
[15]
  growth at 1 µM: 74%
M14 [16]
  growth at 0.1 µM: 92%
MCF7 [17]
  growth at 0.01 µM: 92%
[18]
  growth at 0.1 µM: 100%
SK-MEL-28
  growth at 0.1 µM: 92%
[19]
  growth at 100 µM: -82%
MCF7 [20]
  growth at 0.1 µM: 89%
NCI-H226
  growth at 1 µM: 98%
[21]
  growth at 1 µM: 83%
[22]
  GI50: 2.06 µM
  CC50: > 100 µM
SN12C [23]
  growth at 100 µM: 12%
[24]
  growth at 1 µM: 82%
[25]
  growth at 0.1 µM: 102%
[26]
  growth at 0.1 µM: 93%
[27]
  GI50: 2.02 µM
  TGI: 5.12 µM
  CC50: > 100 µM
[28]
  GI50: 1.89 µM
  LC50 (concentration killing 50% of the starting cells): > 100 µM
  TGI: 5.39 µM
M14 [29]
  growth at 0.01 µM: 90%

## CNC(=O)c1cc(Oc2ccc3nc(NC(=O)Nc4ccc(Cl)c(Cl)c4)sc3c2)ccn1
[1]
  GI50: 2.46 µM
  TGI: 6.3 µM
  CC50: > 100 µM
[2]
  growth at 1 µM: 119%
SN12C [3]
  GI50: 3.92 µM
  TGI: > 100 µM
  CC50: > 100 µM
A498
  growth at 1 µM: 115%
[4]
  growth at 100 µM: 15%
[5]
  growth at 100 µM: 89%
[6]
  growth at 0.01 µM: 94%
MDA-MB-468
  growth at 0.1 µM: 91%
ACHN
  growth at 0.01 µM: 92%
[7]
  growth at 0.01 µM: 89%
[8]
  GI50: 1.98 µM
  LC50 (concentration killing 50% of cells): 8.97 µM
  TGI: 4.21 µM
[9]
  growth at 100 µM: -54%
786-0 [11]
  growth at 0.1 µM: 100%
CYP2C19
  activity at 5 min, 10 µM: 83.6%
K562
  GI50: > 100 µM
  TGI: > 100 µM
  CC50: > 100 µM
[12]
  growth at 0.01 µM: 97%
[13]
  growth at 1 µM: 117%
786-0 [14]
  growth at 100 µM: -67%
[15]
  growth at 1 µM: 91%
M14 [16]
  growth at 0.1 µM: 96%
MCF7 [17]
  growth at 0.01 µM: 87%
[18]
  growth at 0.1 µM: 104%
SK-MEL-28
  growth at 0.1 µM: 100%
[19]
  growth at 100 µM: -74%
MCF7 [20]
  growth at 0.1 µM: 89%
NCI-H226
  growth at 1 µM: 109%
[21]
  growth at 1 µM: 85%
[22]
  GI50: 2.32 µM
  TGI: 7.76 µM
  CC50: > 100 µM
SN12C [23]
  growth at 100 µM: 9%
[24]
  growth at 1 µM: 104%
[25]
  growth at 0.1 µM: 93%
[26]
  growth at 0.1 µM: 99%
[27]
  GI50: 2.55 µM
  TGI: 6.75 µM
  CC50: > 100 µM
[28]
  GI50: 1.88 µM
  LC50 (concentration killing 50% of the starting cells): 11.5 µM
  TGI: 4.35 µM
M14 [29]
  growth at 0.01 µM: 93%
